Assay results: patent publication US9708314B2, “Heterocyclic amide compound” (NISSAN CHEMICAL INDUSTRIES, LTD., priority 2013, dated 2017)

Experiments:
Type in all cases: in vivo
Scirpus juncoides = assay: Test Example 1: herbicidal activity, application before weed generation in submerged conditions; details: Application herbicide amount 320 g/ha; Seventeenth Table
Text: (§1) [Test Example 1] Herbicidal Activity Test by Application Before Weed Generation in Submerged Conditions After alluvial soil was placed into 1/10000 are of Wagner pot, water was poured and mixed to form a submerged condition having a water depth of 4 cm. Seeds of Echinochloa oryzacola Vasing., Scirpus juncoides, and Monochoria vaginalis were sowed in a mixed manner in the above pot and thereafter 2.5 leaf stage Oryza sativa seedling was transplanted. On the day of sowing seeds, the emulsion agent containing the compound of the present invention prepared in accordance with Formulation Example 2 was diluted with water so as to be a predetermined herbicide amount and the diluted compound was applied to the surface of the water. The pot was placed in a greenhouse of 25° C. to 30° C. to grow plant. Three weeks after the herbicide application, effects on each plant were investigated in accordance with the following criteria. Criteria 5 Herbicidal ratio of 90% or more (almost completely withered) 4 Herbicidal ratio of 70% or more and less than 90% 3 Herbicidal ratio of 40% or more and less than 70% 2 Herbicidal ratio of 20% or more and less than 40% 1 Herbicidal ratio of 5% or more and less than 20% 0 Herbicidal ratio of 5% or less (almost no effect) A: Echinochloa oryzicola Vasing., B: Scirpus juncoides, C: Monochoria vaginalis, D: Leptochloa chinensis, E: Cyperus difformis, F: Digitaria ciliaris, G: Setaria viridis, H: Echinochloa crus-galli var. crus-galli, I: Avena fatua, J: Alopecurus myosuroides, K: Lolium multiflorum Lam., L: Apera spica-venti., M: Abutilon theophrasti, N: Amaranthus retroflexus, O: Chenopodium album, P: Stellaria media, Q: Galium spurium, R: Veronica persica, a: transplanted Oryza sativa, b: directly sowed Oryza sativa, c: Zea mays, d: Glycine max, e: Triticum aestivum, f: Beta vulgaris ssp. vulgaris, and g: Brassica campestris L. The application herbicide amount (g/ha) means an amount that a concentration is adjusted so that, when an application amount is converted into per hectare (1 ha), the herbicide is applied by the number of grams (g) of the described value.

Monochoria vaginalis = assay: as above; details: Application herbicide amount 320 g/ha; Seventeenth Table
Text: as §1

Zea mays = assay: Test Example 4: effect on crop by application to foliage (diluvial soil, plastic box); details: application to foliage
Procedure, shortened: (§2)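 Greenhouse plants (25° C. to 30° C., 14 d, diluvial soil) receive a foliar spray of water-diluted emulsifiable formulation at defined g/ha. Grading after 3 weeks uses a six-step herbicidal-ratio scale, with 4 covering 70% to <90% and 1 covering 5% to <20%.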

Brassica campestris L. = assay: as above; details: application to foliage
Procedure, shortened: as §2

[1] = tested on: Beta vulgaris ssp. vulgaris; assay: as above; details: application to foliage
Procedure, shortened: as §2

Glycine max = assay: as above; details: application to foliage
Procedure, shortened: as §2

[2] = tested on: directly sowed Oryza sativa; assay: as above; details: application to foliage
Procedure, shortened: as §2

Triticum aestivum = assay: as above; details: application to foliage
Procedure, shortened: as §2

Veronica persica = assay: Test Example 4: herbicidal effect by application to foliage (diluvial soil, plastic box); details: application to foliage
Text: (§3) 5 Herbicidal ratio of 90% or more (almost completely withered) 4 Herbicidal ratio of 70% or more and less than 90% 3 Herbicidal ratio of 40% or more and less than 70% 2 Herbicidal ratio of 20% or more and less than 40% 1 Herbicidal ratio of 5% or more and less than 20% 0 Herbicidal ratio of 5% or less (almost no effect) [Test Example 4] Herbicidal Effect Test by Application to Foliage Sterilized diluvial soil was placed in a plastic box having a length of 21 cm, a width of 13 cm, and a depth of 7 cm. Each of the seeds of Digitaria ciliaris, Setaria viridis, Echinochloa crus-galli var. crus-galli, Avena fatua, Alopecurus myosuroides, Lolium multiflorum Lam., Apera spica-venti., Abutilon theophrasti, Amaranthus retroflexus, Chenopodium album, Stellaria media, Galium spurium, Veronica persica, Zea mays, Glycine max, Oryza sativa, Triticum aestivum, Beta vulgaris ssp. vulgaris, and Brassica campestris L. was sowed in a spot-like manner and was covered with the soil of about 1.5 cm thick. Thereafter, the plants were grown in the greenhouse of 25° C. to 30° C. After the plants were grown for 14 days, the emulsion agent containing the compound of the present invention prepared in accordance with Formulation Example 2 was diluted with water so as to be a predetermined herbicide amount and the diluted compound was uniformly applied to a stem and leaf part with a small-size spray. Three weeks after the herbicide application, effects on each plant were investigated in accordance with the criteria of Test Example 1. A: Echinochloa oryzicola Vasing., B: Scirpus juncoides, C: Monochoria vaginalis, D: Leptochloa chinensis, E: Cyperus difformis, F: Digitaria ciliaris, G: Setaria viridis, H: Echinochloa crus-galli var. crus-galli, I: Avena fatua, J: Alopecurus myosuroides, K: Lolium multiflorum Lam., L: Apera spica-venti., M: Abutilon theophrasti, N: Amaranthus retroflexus, O: Chenopodium album, P: Stellaria media, Q: Galium spurium, R: Veronica persica, a: transplanted Oryza sativa, b: directly sowed Oryza sativa, c: Zea mays, d: Glycine max, e: Triticum aestivum, f: Beta vulgaris ssp. vulgaris, and g: Brassica campestris L. The application herbicide amount (g/ha) means an amount that a concentration is adjusted so that, when an application amount is converted into per hectare (1 ha), the herbicide is applied by the number of grams (g) of the described value.

Amaranthus retroflexus = assay: as above; details: application to foliage
Text: as §3

Digitaria ciliaris = assay: as above; details: application to foliage
Text: as §3

[3] = tested on: Echinochloa crus-galli var. crus-galli; assay: as above; details: application to foliage
Text: as §3

Galium spurium = assay: as above; details: application to foliage
Text: as §3

Apera spica-venti. = assay: as above; details: application to foliage
Text: as §3

Abutilon theophrasti = assay: as above; details: application to foliage
Text: as §3

Lolium multiflorum Lam. = assay: as above; details: application to foliage
Text: as §3

Avena fatua = assay: as above; details: application to foliage
Text: as §3

Setaria viridis = assay: as above; details: application to foliage
Text: as §3

Chenopodium album = assay: as above; details: application to foliage
Text: as §3

Stellaria media = assay: as above; details: application to foliage
Text: as §3

Alopecurus myosuroides = assay: as above; details: application to foliage
Text: as §3

[4] = tested on: transplanted Oryza sativa; assay: Test Example 1: effect on crop, application before weed generation in submerged conditions; details: Application herbicide amount 320 g/ha; Seventeenth Table
Text: as §1

[5] = tested on: Echinochloa crus-galli var. crus-galli; assay: Test Example 3: herbicidal effect by application to foliage (Wagner pot, water depth 0.1-0.5 cm); details: Nineteenth Table; application to foliage; application herbicide amount 320 g/ha
Text: (§4) 5 Herbicidal ratio of 90% or more (almost completely withered) 4 Herbicidal ratio of 70% or more and less than 90% 3 Herbicidal ratio of 40% or more and less than 70% 2 Herbicidal ratio of 20% or more and less than 40% 1 Herbicidal ratio of 5% or more and less than 20% 0 Herbicidal ratio of 5% or less (almost no effect) [Test Example 3] Herbicidal Effect Test by Application to Foliage After alluvial soil was placed into 1/10000 are of Wagner pot, water was poured and mixed to form a condition having a water depth of 0.1 cm to 0.5 cm. Seeds of Echinochloa crus-galli var. crus-galli, Leptochloa chinensis, Cyperus difformis, and Oryza sativa were sowed and the pot was placed in the greenhouse of 25° C. to 30° C. to grow the plants. After the plants were grown for 14 days, the emulsion agent containing the compound of the present invention prepared in accordance with Formulation Example 2 was diluted with water so as to be a predetermined herbicide amount and the diluted compound was uniformly applied to a stem and leaf part with a small-size spray. Three weeks after the herbicide application, effects on each plant were investigated in accordance with the criteria of Test Example 1. A: Echinochloa oryzicola Vasing., B: Scirpus juncoides, C: Monochoria vaginalis, D: Leptochloa chinensis, E: Cyperus difformis, F: Digitaria ciliaris, G: Setaria viridis, H: Echinochloa crus-galli var. crus-galli, I: Avena fatua, J: Alopecurus myosuroides, K: Lolium multiflorum Lam., L: Apera spica-venti., M: Abutilon theophrasti, N: Amaranthus retroflexus, O: Chenopodium album, P: Stellaria media, Q: Galium spurium, R: Veronica persica, a: transplanted Oryza sativa, b: directly sowed Oryza sativa, c: Zea mays, d: Glycine max, e: Triticum aestivum, f: Beta vulgaris ssp. vulgaris, and g: Brassica campestris L. The application herbicide amount (g/ha) means an amount that a concentration is adjusted so that, when an application amount is converted into per hectare (1 ha), the herbicide is applied by the number of grams (g) of the described value.

Cyperus difformis = assay: as above; details: Nineteenth Table; application to foliage; application herbicide amount 320 g/ha
Text: as §4

Leptochloa chinensis = assay: as above; details: Nineteenth Table; application to foliage; application herbicide amount 320 g/ha
Text: as §4

[6] = application herbicide amount 320 g/ha

Compound: CC#Cc1nnc2c(C(=O)Nc3nnc(C)o3)ccc(C(F)(F)F)n12 [1-161]
- B: Scirpus juncoides (herbicidal effect grade) (Scirpus juncoides): 2 (Herbicidal ratio of 20% or more and less than 40%)
- C: Monochoria vaginalis (herbicidal effect grade) (Monochoria vaginalis): 0 (Herbicidal ratio of 5% or less (almost no effect))
- c: effect on crop, Zea mays (Zea mays; [6]): 0 (Herbicidal ratio of 5% or less (almost no effect))
- g: effect on crop, Brassica campestris L. (Brassica campestris L.; [6]): 0 (Herbicidal ratio of 5% or less (almost no effect))
- f: effect on crop, Beta vulgaris ssp. vulgaris [1, 6]: 1 (Herbicidal ratio of 5% or more and less than 20%)
- d: effect on crop, Glycine max (Glycine max; [6]): 1 (Herbicidal ratio of 5% or more and less than 20%)
- b: effect on crop, directly sowed Oryza sativa [2, 6]: 0 (Herbicidal ratio of 5% or less (almost no effect))
- e: effect on crop, Triticum aestivum (Triticum aestivum; [6]): 0 (Herbicidal ratio of 5% or less (almost no effect))
- R: herbicidal effect on Veronica persica (Veronica persica; [6]): 1 (Herbicidal ratio of 5% or more and less than 20%)
- N: herbicidal effect on Amaranthus retroflexus (Amaranthus retroflexus; [6]): 0 (Herbicidal ratio of 5% or less (almost no effect))
- F: herbicidal effect on Digitaria ciliaris (Digitaria ciliaris; [6]): 3 (Herbicidal ratio of 40% or more and less than 70%)
- H: herbicidal effect on Echinochloa crus-galli var. crus-galli [3, 6]: 3 (Herbicidal ratio of 40% or more and less than 70%)
- Q: herbicidal effect on Galium spurium (Galium spurium; [6]): 0 (Herbicidal ratio of 5% or less (almost no effect))
- L: herbicidal effect on Apera spica-venti. (Apera spica-venti.; [6]): 0 (Herbicidal ratio of 5% or less (almost no effect))
- M: herbicidal effect on Abutilon theophrasti (Abutilon theophrasti; [6]): 1 (Herbicidal ratio of 5% or more and less than 20%)
- K: herbicidal effect on Lolium multiflorum Lam. (Lolium multiflorum Lam.; [6]): 0 (Herbicidal ratio of 5% or less (almost no effect))
- I: herbicidal effect on Avena fatua (Avena fatua; [6]): 0 (Herbicidal ratio of 5% or less (almost no effect))
- G: herbicidal effect on Setaria viridis (Setaria viridis; [6]): 0 (Herbicidal ratio of 5% or less (almost no effect))
- O: herbicidal effect on Chenopodium album (Chenopodium album; [6]): 4 (Herbicidal ratio of 70% or more and less than 90%)
- P: herbicidal effect on Stellaria media (Stellaria media; [6]): 0 (Herbicidal ratio of 5% or less (almost no effect))
- J: herbicidal effect on Alopecurus myosuroides (Alopecurus myosuroides; [6]): 0 (Herbicidal ratio of 5% or less (almost no effect))
- a: transplanted Oryza sativa (effect on crop grade) [4]: 0 (Herbicidal ratio of 5% or less (almost no effect))

Compound: CCOC(=O)Cn1nnnc1NC(=O)c1ccc(C(F)(F)F)n2c(C(C)C)nnc12 [2-092]
- H (herbicidal effect grade) [5]: 2 (Herbicidal ratio of 20% or more and less than 40%)
- E (herbicidal effect grade) (Cyperus difformis): 2 (Herbicidal ratio of 20% or more and less than 40%)
- D (herbicidal effect grade) (Leptochloa chinensis): 3 (Herbicidal ratio of 40% or more and less than 70%)
- effect on crop, b (Zea mays) (Zea mays; 320 g/ha): 0 (Herbicidal ratio of 5% or less (almost no effect))
- effect on crop, g (Brassica campestris L.) (Brassica campestris L.; 320 g/ha): 0 (Herbicidal ratio of 5% or less (almost no effect))
- effect on crop, f (Beta vulgaris ssp. vulgaris) ([1]; 320 g/ha): 3 (Herbicidal ratio of 40% or more and less than 70%)
- effect on crop, c (Glycine max) (Glycine max; 320 g/ha): 0 (Herbicidal ratio of 5% or less (almost no effect))
- effect on crop, d (directly sowed Oryza sativa) ([2]; 320 g/ha): 1 (Herbicidal ratio of 5% or more and less than 20%)
- effect on crop, e (Triticum aestivum) (Triticum aestivum; 320 g/ha): 0 (Herbicidal ratio of 5% or less (almost no effect))
- herbicidal effect, R (Veronica persica) (Veronica persica; 320 g/ha): 1 (Herbicidal ratio of 5% or more and less than 20%)
- herbicidal effect, N (Amaranthus retroflexus) (Amaranthus retroflexus; 320 g/ha): 1 (Herbicidal ratio of 5% or more and less than 20%)
- herbicidal effect, F (Digitaria ciliaris) (Digitaria ciliaris; 320 g/ha): 0 (Herbicidal ratio of 5% or less (almost no effect))
- herbicidal effect, H (Echinochloa crus-galli var. crus-galli) ([3]; 320 g/ha): 2 (Herbicidal ratio of 20% or more and less than 40%)
- herbicidal effect, Q (Galium spurium) (Galium spurium; 320 g/ha): 1 (Herbicidal ratio of 5% or more and less than 20%)
- herbicidal effect, L (Apera spica-venti.) (Apera spica-venti.; 320 g/ha): 0 (Herbicidal ratio of 5% or less (almost no effect))
- herbicidal effect, M (Abutilon theophrasti) (Abutilon theophrasti; 320 g/ha): 1 (Herbicidal ratio of 5% or more and less than 20%)
- herbicidal effect, K (Lolium multiflorum Lam.) (Lolium multiflorum Lam.; 320 g/ha): 0 (Herbicidal ratio of 5% or less (almost no effect))
- herbicidal effect, I (Avena fatua) (Avena fatua; 320 g/ha): 1 (Herbicidal ratio of 5% or more and less than 20%)
- herbicidal effect, G (Setaria viridis) (Setaria viridis; 320 g/ha): 0 (Herbicidal ratio of 5% or less (almost no effect))
- herbicidal effect, O (Chenopodium album) (Chenopodium album; 320 g/ha): 3 (Herbicidal ratio of 40% or more and less than 70%)
- herbicidal effect, P (Stellaria media) (Stellaria media; 320 g/ha): 3 (Herbicidal ratio of 40% or more and less than 70%)
- herbicidal effect, J (Alopecurus myosuroides) (Alopecurus myosuroides; 320 g/ha): 0 (Herbicidal ratio of 5% or less (almost no effect))
